Laboratory results from article PMC9516332 (Frontiers in Oncology, 2022).
Where two headings read alike, the source gives them in different places.

Columns and labels:
Assay in all cases: Kinase panel profiling at 1 µmol/L (MSA or IMAP), percentage inhibition
Assay type in all cases: biochemical
[1] = target: T1, panel of 255 wild-type kinases (Homo sapiens, UniProt Q96PF2); details: read-out: %-inhibition at 1 µmol/L, TSSK2
T1 sequence (Q96PF2 1-358): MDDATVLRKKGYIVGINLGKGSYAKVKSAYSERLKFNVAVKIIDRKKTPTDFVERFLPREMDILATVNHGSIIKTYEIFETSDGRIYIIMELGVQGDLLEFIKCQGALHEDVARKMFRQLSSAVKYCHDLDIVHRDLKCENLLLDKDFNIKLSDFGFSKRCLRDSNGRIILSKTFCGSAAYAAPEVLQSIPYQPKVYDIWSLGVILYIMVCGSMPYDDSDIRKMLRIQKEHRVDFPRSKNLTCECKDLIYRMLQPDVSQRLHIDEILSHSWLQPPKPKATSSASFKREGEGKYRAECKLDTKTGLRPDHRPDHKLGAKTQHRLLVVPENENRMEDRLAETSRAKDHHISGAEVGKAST

[2] = target: panel of 255 wild-type kinases (Homo sapiens, UniProt P06493); details: read-out: %-inhibition CDC2/CycB1
[3] = target: T2, panel of 255 wild-type kinases (Homo sapiens, UniProt Q12866); details: read-out: %-inhibition, MER
T2 sequence (Q12866 21-999): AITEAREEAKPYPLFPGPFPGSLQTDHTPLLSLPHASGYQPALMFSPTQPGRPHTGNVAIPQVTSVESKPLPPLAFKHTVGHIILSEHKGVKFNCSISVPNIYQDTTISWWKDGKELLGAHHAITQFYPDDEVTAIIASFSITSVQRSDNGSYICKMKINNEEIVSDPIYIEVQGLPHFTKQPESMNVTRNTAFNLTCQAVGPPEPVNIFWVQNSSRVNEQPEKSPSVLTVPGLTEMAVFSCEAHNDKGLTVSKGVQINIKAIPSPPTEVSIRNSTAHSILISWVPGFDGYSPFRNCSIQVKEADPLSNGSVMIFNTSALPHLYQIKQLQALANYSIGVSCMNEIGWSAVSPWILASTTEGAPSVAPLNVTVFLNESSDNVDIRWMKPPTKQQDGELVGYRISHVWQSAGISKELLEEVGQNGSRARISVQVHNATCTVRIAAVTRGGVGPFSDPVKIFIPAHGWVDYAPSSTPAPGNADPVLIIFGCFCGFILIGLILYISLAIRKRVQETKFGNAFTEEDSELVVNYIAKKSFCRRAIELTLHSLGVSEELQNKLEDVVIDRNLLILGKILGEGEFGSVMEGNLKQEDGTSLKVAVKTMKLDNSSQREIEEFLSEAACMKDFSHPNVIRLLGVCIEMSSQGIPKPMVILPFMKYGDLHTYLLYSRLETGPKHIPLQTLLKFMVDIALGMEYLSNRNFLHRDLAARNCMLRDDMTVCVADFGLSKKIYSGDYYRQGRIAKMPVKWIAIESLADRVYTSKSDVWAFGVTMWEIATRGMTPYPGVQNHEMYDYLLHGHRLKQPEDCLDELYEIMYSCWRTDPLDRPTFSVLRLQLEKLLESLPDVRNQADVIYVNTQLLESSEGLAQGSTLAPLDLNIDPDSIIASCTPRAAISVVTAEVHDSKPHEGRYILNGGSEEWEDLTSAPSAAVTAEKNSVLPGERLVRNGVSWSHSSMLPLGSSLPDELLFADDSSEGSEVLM

[4] = target: panel of 255 wild-type kinases (Homo sapiens, UniProt Q02763); details: read-out: %-inhibition at 1 µmol/L, TIE2
[5] = target: T3, panel of 255 wild-type kinases (Homo sapiens, UniProt Q15139); details: read-out: %-inhibition at 1 µmol/L, PKD1
T3 sequence (Q15139 1-912): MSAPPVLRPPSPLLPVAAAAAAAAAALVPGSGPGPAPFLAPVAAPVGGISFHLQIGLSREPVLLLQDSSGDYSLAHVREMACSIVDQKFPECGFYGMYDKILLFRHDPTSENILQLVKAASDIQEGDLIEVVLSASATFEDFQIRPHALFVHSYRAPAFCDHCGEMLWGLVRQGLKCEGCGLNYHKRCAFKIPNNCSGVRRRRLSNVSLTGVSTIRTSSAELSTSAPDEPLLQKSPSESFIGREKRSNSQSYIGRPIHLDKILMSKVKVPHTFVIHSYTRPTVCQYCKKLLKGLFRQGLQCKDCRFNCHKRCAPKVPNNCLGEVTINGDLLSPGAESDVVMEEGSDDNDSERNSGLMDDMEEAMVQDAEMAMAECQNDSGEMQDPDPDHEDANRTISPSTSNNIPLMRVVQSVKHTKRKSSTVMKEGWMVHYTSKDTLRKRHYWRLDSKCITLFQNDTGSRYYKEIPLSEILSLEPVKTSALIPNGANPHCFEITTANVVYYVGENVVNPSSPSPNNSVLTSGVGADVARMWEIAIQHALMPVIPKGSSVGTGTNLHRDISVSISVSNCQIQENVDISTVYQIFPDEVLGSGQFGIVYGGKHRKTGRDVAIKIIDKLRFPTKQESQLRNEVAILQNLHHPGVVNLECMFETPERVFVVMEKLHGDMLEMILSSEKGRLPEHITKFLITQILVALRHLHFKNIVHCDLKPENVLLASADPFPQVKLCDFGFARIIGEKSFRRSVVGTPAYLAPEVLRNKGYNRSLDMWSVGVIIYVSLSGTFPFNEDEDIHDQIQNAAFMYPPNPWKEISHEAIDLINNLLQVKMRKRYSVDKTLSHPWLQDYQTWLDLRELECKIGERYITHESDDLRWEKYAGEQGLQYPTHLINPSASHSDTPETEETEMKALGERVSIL

[6] = kinase TSSK2, 1 µmol/L single concentration
[7] = CDC2/CycB1 kinase assay, 1 µmol/L single concentration
[8] = MER, 1 µmol/L single concentration
[9] = kinase TIE2, 1 µmol/L single concentration
[10] = kinase PKD1, 1 µmol/L single concentration

| Compound | inhibition at 1 µM [1, 6] [%] | inhibition at 1 µM [2, 7] [%] | inhibition at 1 µM [3, 8] [%] | inhibition at 1 µM [4, 9] [%] | inhibition at 1 µM [5, 10] [%] | inhibition at 1 µM [1] [%] | inhibition at 1 µM [2] [%] | inhibition at 1 µM [3] [%] | inhibition at 1 µM [4] [%] | inhibition at 1 µM [5] [%] |
| --- | --- | --- | --- | --- | --- | --- | --- | --- | --- | --- |
| Cc1nc(NC(=O)N2CCC[C@H]2C(N)=O)sc1-c1ccnc(C(C)(C)C(F)(F)F)c1 [alpelisib] | -6 | -3.48 | -3.44 | -0.712 | -2 | – | – | – | – | – |
| Cn1cc(-c2cc3c(N4CCN(c5ncc([C@@](C)(N)c6ccc(F)cc6)cn5)CC4)ncnn3c2)cn1 [avapritinib] | 1.35 | 3 | 17 | 3.23 | 6.4 | – | – | – | – | – |
| Cn1cnc2c(F)c(Nc3ccc(Br)cc3F)c(C(=O)NOCCO)cc21 [binimetinib] | -5 | 2.36 | -2.19 | 2.63 | -1.69 | – | – | – | – | – |
| CNC(=O)c1ccc(-c2cnc3ncc(Cc4ccc5ncccc5c4)n3n2)cc1F [capmatinib] | – | – | – | – | – | -3.31 | 2 | 13 | -3.44 | -5 |
| COc1cc2ncnc(Nc3ccc(F)c(Cl)c3)c2cc1NC(=O)/C=C/CN1CCCCC1 [dacomitinib] | 1.2 | -6 | 19 | 16 | 9.49 | – | – | – | – | – |
| C[C@H](Nc1ncnc2nc[nH]c12)c1cc2cccc(Cl)c2c(=O)n1-c1ccccc1 [duvelisib] | -1.37 | -0.937 | -1 | -0.0949 | -3.47 | – | – | – | – | – |
| COC(=O)N[C@@H](C)CNc1nccc(-c2cn(C(C)C)nc2-c2cc(Cl)cc(NS(C)(=O)=O)c2F)n1 [encorafenib] | -2.44 | 8 | 0.281 | 6 | 0.18 | – | – | – | – | – |
| CN1CCN(c2ccc(C(=O)Nc3n[nH]c4ccc(Cc5cc(F)cc(F)c5)cc34)c(NC3CCOCC3)c2)CC1 [entrectinib] | -7 | 3.63 | 61 | 72 | 1.46 | – | – | – | – | – |
| CCc1nc(C(N)=O)c(Nc2ccc(N3CCC(N4CCN(C)CC4)CC3)c(OC)c2)nc1NC1CCOCC1 [gilteritinib] | 55 | 26 | – | 41 | 52 | – | – | 100 | – | – |
| CCN1CCN(c2ccc(Nc3cc(N(C)C(=O)Nc4c(Cl)c(OC)cc(OC)c4Cl)ncn3)cc2)CC1 [infigratinib] | -3.74 | -9 | 15 | 63 | 11 | – | – | – | – | – |
| O=C(Nc1cnn2ccc(N3CCC[C@@H]3c3cc(F)ccc3F)nc12)N1CC[C@H](O)C1 [larotrectinib] | -0.476 | -7 | 6 | 1.84 | 0.148 | – | – | – | – | – |
| C[C@H]1Oc2cc(cnc2N)-c2c(nn(C)c2C#N)CN(C)C(=O)c2ccc(F)cc21 [lorlatinib] | 56 | 3.16 | 11 | 17 | -0.468 | – | – | – | – | – |
| CCN1C(=O)N(c2c(F)c(OC)cc(OC)c2F)Cc2cnc3[nH]c(CN4CCOCC4)cc3c21 [pemigatinib] | -3.21 | 10 | 7 | 28 | 10 | – | – | – | – | – |
| FC(F)(F)c1ccc(CNc2ccc(Cc3c[nH]c4ncc(Cl)cc34)cn2)cn1 [pexidartinib] | -0.308 | 32 | 54 | 14 | -2.56 | – | – | – | – | – |
| CO[C@]1(C(=O)N[C@@H](C)c2ccc(-n3cc(F)cn3)nc2)CC[C@H](c2nc(C)cc(Nc3cc(C)[nH]n3)n2)CC1 [pralsetinib] | 8 | 15 | 79 | 5.49 | 0.3 | – | – | – | – | – |
| CCn1c(=O)c(-c2cc(NC(=O)Nc3ccccc3)c(F)cc2Br)cc2cnc(NC)cc21 [ripretinib] | -3.73 | -5.56 | -11 | 79 | 15 | – | – | – | – | – |
| COc1ccc(CN2C3CC2CN(c2ccc(-c4cc(OCC(C)(C)O)cn5ncc(C#N)c45)cn2)C3)cn1 [selpercatinib] | -0.889 | -4 | 88 | 43 | 3.64 | – | – | – | – | – |
| Cn1cnc2c(F)c(Nc3ccc(Br)cc3Cl)c(C(=O)NOCCO)cc21 [selumetinib] | -4.25 | -11 | 11 | -9 | -0.6 | – | – | – | – | – |
| Cc1cc(Nc2ncnc3ccc(NC4=NC(C)(C)CO4)cc23)ccc1Oc1ccn2ncnc2c1 [tucatinib] | -0.922 | -7 | 12 | -2.82 | 28 | – | – | – | – | – |
| C=CC(=O)N1CCC([C@@H]2CCNc3c(C(N)=O)c(-c4ccc(Oc5ccccc5)cc4)nn32)CC1 [zanubrutinib] | 0.571 | -7 | 6 | 2 | 5 | – | – | – | – | – |
